The NIST ThermoML archive (doi:10.1021/je7003929)
± gives the expanded uncertainty stated by the source.

Experiment: xn = mol fraction of the nth substance listed
Settings: Liquid, Vibrating tube method

Q: What does the source list for c1ccc2sccc2c1 [benzo[b]thiophene] + CCCCCC?
A: mass density (322.95 K, 1028 kPa, x2 = 0.0629): 1103.4 ± 0.5 kg/m3; mass density (322.95 K, 2021 kPa, x2 = 0.0629): 1104.1 ± 0.5 kg/m3; mass density (322.95 K, 3029 kPa, x2 = 0.0629): 1104.7 ± 0.5 kg/m3; mass density (322.95 K, 4021 kPa, x2 = 0.0629): 1105.4 ± 0.5 kg/m3; mass density (322.95 K, 5037 kPa, x2 = 0.0629): 1106.1 ± 0.5 kg/m3; mass density (322.95 K, 6021 kPa, x2 = 0.0629): 1106.7 ± 0.5 kg/m3; mass density (322.95 K, 7021 kPa, x2 = 0.0629): 1107.4 ± 0.5 kg/m3; mass density (322.95 K, 8029 kPa, x2 = 0.0629): 1108.1 ± 0.5 kg/m3; mass density (322.95 K, 9018 kPa, x2 = 0.0629): 1108.7 ± 0.5 kg/m3; mass density (322.95 K, 10003 kPa, x2 = 0.0629): 1109.3 ± 0.5 kg/m3; mass density (322.95 K, 10998 kPa, x2 = 0.0629): 1109.9 ± 0.5 kg/m3; mass density (322.95 K, 12016 kPa, x2 = 0.0629): 1110.6 ± 0.5 kg/m3; mass density (322.95 K, 13012 kPa, x2 = 0.0629): 1111.2 ± 0.5 kg/m3; mass density (322.95 K, 14019 kPa, x2 = 0.0629): 1111.8 ± 0.5 kg/m3; mass density (322.95 K, 15018 kPa, x2 = 0.0629): 1112.5 ± 0.5 kg/m3; mass density (322.95 K, 16018 kPa, x2 = 0.0629): 1113.1 ± 0.5 kg/m3; mass density (322.95 K, 17024 kPa, x2 = 0.0629): 1113.7 ± 0.5 kg/m3; mass density (322.95 K, 18018 kPa, x2 = 0.0629): 1114.4 ± 0.5 kg/m3; mass density (322.95 K, 19024 kPa, x2 = 0.0629): 1115 ± 0.6 kg/m3; mass density (322.95 K, 20012 kPa, x2 = 0.0629): 1115.6 ± 0.6 kg/m3; mass density (323.02 K, 1017 kPa, x2 = 0.7491): 752.7 ± 0.5 kg/m3; mass density (323.02 K, 2013 kPa, x2 = 0.7491): 753.8 ± 0.5 kg/m3; mass density (323.02 K, 3014 kPa, x2 = 0.7491): 754.9 ± 0.5 kg/m3; mass density (323.02 K, 4012 kPa, x2 = 0.7491): 756 ± 0.5 kg/m3; mass density (323.02 K, 5008 kPa, x2 = 0.7491): 757.1 ± 0.5 kg/m3; mass density (323.02 K, 6010 kPa, x2 = 0.7491): 758.1 ± 0.5 kg/m3; mass density (323.02 K, 7025 kPa, x2 = 0.7491): 759.2 ± 0.5 kg/m3; mass density (323.02 K, 8028 kPa, x2 = 0.7491): 760.2 ± 0.5 kg/m3; mass density (323.02 K, 9009 kPa, x2 = 0.7491): 761.2 ± 0.5 kg/m3; mass density (323.02 K, 10010 kPa, x2 = 0.7491): 762.2 ± 0.5 kg/m3; mass density (323.02 K, 11002 kPa, x2 = 0.7491): 763.2 ± 0.5 kg/m3; mass density (323.02 K, 12017 kPa, x2 = 0.7491): 764.1 ± 0.5 kg/m3; mass density (323.02 K, 13019 kPa, x2 = 0.7491): 765.1 ± 0.5 kg/m3; mass density (323.02 K, 14006 kPa, x2 = 0.7491): 766 ± 0.5 kg/m3; mass density (323.02 K, 15015 kPa, x2 = 0.7491): 767 ± 0.5 kg/m3; mass density (323.02 K, 16022 kPa, x2 = 0.7491): 767.9 ± 0.5 kg/m3; mass density (323.02 K, 17019 kPa, x2 = 0.7491): 768.8 ± 0.5 kg/m3; mass density (323.02 K, 18016 kPa, x2 = 0.7491): 769.8 ± 0.5 kg/m3; mass density (323.02 K, 19024 kPa, x2 = 0.7491): 770.6 ± 0.5 kg/m3; mass density (323.02 K, 20021 kPa, x2 = 0.7491): 771.5 ± 0.5 kg/m3; mass density (323.09 K, 1017 kPa, x2 = 0.9432): 659.3 ± 0.5 kg/m3; mass density (323.09 K, 2024 kPa, x2 = 0.9432): 660.6 ± 0.5 kg/m3; mass density (323.09 K, 3024 kPa, x2 = 0.9432): 661.9 ± 0.5 kg/m3; mass density (323.09 K, 4016 kPa, x2 = 0.9432): 663.1 ± 0.5 kg/m3; mass density (323.09 K, 5024 kPa, x2 = 0.9432): 664.2 ± 0.5 kg/m3; mass density (323.09 K, 6021 kPa, x2 = 0.9432): 665.5 ± 0.5 kg/m3; mass density (323.09 K, 7018 kPa, x2 = 0.9432): 666.6 ± 0.5 kg/m3; mass density (323.09 K, 8020 kPa, x2 = 0.9432): 667.8 ± 0.5 kg/m3; mass density (323.09 K, 9019 kPa, x2 = 0.9432): 668.9 ± 0.5 kg/m3; mass density (323.09 K, 10010 kPa, x2 = 0.9432): 670 ± 0.5 kg/m3; mass density (323.09 K, 11012 kPa, x2 = 0.9432): 671.1 ± 0.5 kg/m3; mass density (323.09 K, 12013 kPa, x2 = 0.9432): 672.2 ± 0.5 kg/m3; mass density (323.09 K, 13021 kPa, x2 = 0.9432): 673.3 ± 0.5 kg/m3; mass density (323.09 K, 14023 kPa, x2 = 0.9432): 674.3 ± 0.5 kg/m3; mass density (323.09 K, 15015 kPa, x2 = 0.9432): 675.3 ± 0.5 kg/m3; mass density (323.09 K, 16001 kPa, x2 = 0.9432): 676.3 ± 0.5 kg/m3; mass density (323.09 K, 17028 kPa, x2 = 0.9432): 677.3 ± 0.6 kg/m3; mass density (323.09 K, 18003 kPa, x2 = 0.9432): 678.3 ± 0.6 kg/m3; mass density (323.09 K, 19001 kPa, x2 = 0.9432): 679.3 ± 0.6 kg/m3; mass density (323.09 K, 20017 kPa, x2 = 0.9432): 680.3 ± 0.6 kg/m3; mass density (332.66 K, 1020 kPa, x2 = 0.2588): 991.1 ± 0.5 kg/m3; mass density (332.66 K, 2021 kPa, x2 = 0.2588): 991.9 ± 0.5 kg/m3; mass density (332.66 K, 3022 kPa, x2 = 0.2588): 992.7 ± 0.5 kg/m3; mass density (332.66 K, 4018 kPa, x2 = 0.2588): 993.5 ± 0.5 kg/m3; mass density (332.66 K, 5021 kPa, x2 = 0.2588): 994.3 ± 0.5 kg/m3; mass density (332.66 K, 6012 kPa, x2 = 0.2588): 995 ± 0.5 kg/m3; mass density (332.66 K, 7018 kPa, x2 = 0.2588): 995.8 ± 0.5 kg/m3; mass density (332.66 K, 8005 kPa, x2 = 0.2588): 996.6 ± 0.5 kg/m3; mass density (332.66 K, 9012 kPa, x2 = 0.2588): 997.3 ± 0.5 kg/m3; mass density (332.66 K, 10011 kPa, x2 = 0.2588): 998.2 ± 0.5 kg/m3
